Drawing on article PMC8353271, “Functional Characterization of Olfactory Receptors in the Thyroid Gland” (Frontiers in Physiology, 2021), this text covers EC50 for one substance.

The experiment has as its target T1, OR2H2 (Homo sapiens, UniProt O95918).
T1 sequence (O95918 1-312): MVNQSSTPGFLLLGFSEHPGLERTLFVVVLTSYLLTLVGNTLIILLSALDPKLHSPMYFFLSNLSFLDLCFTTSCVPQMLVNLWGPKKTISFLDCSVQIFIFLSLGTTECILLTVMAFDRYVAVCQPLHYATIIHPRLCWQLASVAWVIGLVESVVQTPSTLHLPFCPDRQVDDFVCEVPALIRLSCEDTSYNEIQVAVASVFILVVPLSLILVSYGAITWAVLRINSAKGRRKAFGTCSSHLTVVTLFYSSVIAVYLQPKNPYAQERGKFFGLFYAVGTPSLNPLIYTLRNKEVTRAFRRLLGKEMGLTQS
The experiment in a line: Fura-2 Ca2+ imaging in Nthy-ori […]-1 cells (endogenous receptor), response reduced by CRISPR/Cas9 OR2H2 knockout; cAMP assay. It is filed as cell-based.

For aldehyde 13-13, the response was half-maximal at 366 µM (EC50).
